Results taken from patent US10010527B2, “Active metabolite of 1-[(2-bromophenyl)sulfonyl]-5-methoxy-3-[(4-methyl-1-piperazinyl)methyl]-1H-indole dimesylate monohydrate and dimesylate dihydrate salt of active metabolite” (SUVEN LIFE SCIENCES LIMITED, priority 2014, dated 2018).

Test system: rats
Assay: Radial arm maze (reversal of scopolamine induced amnesia)
Assay type: in vivo, rat
Settings: p.o.
From the text: Example 4: Radial Arm Maze
The cognition enhancing properties of formula (I) and formula (II) of this invention were estimated by using this model.
Radial arm maze consists of a central hub of 45 centimeter diameter. Each arm was of dimension 42.5×15×24 centimeter. The maze was elevated to a height of 1 meter above the ground. The animals were placed on a restricted diet until they reached approximately 85% of their free feeding weight. During this diet restriction period animals were habituated to the novel feed (pellets). Once the rats reached approximately 85% of their free feeding weight rats were habituated to the maze on the 1st and 2nd day. […] Animals were randomized on day 2. On the subsequent days the treatment was given as per the allotment. Each animal was introduced into the maze individually for a period of 10 minutes. The arms were baited only once and the animal had to learn the rule that repeated arm entries would not be rewarded. The trial ended once the rat had visited 16 arms or 10 minutes were over or all the pellets were eaten. The arm entries were recorded using the software.

Row | Compound | Reversal of Scopolamine Induced amnesia - Effective dose range (dimesylate dihydrate) | Reversal of Scopolamine Induced amnesia - Effective dose range
1 | COc1ccc2c(c1)c(CN1CCNCC1)cn2S(=O)(=O)c1ccccc1Br [Example 2, 1-[(2-Bromophenyl)sulfonyl]-5-methoxy-3-[(1-piperazinyl)methyl]-1H-indole dimesylate dihydrate] | 5-20 mg/kg, p.o. | 
2 | COc1ccc2c(c1)c(CN1CCNCC1)cn2S(=O)(=O)c1ccccc1Br [Example 1, 1-[(2-Bromophenyl)sulfonyl]-5-methoxy-3-[(1-piperazinyl)methyl]-1H-indole] |  | 10-20 mg/kg, p.o.
